Experimental data as given in ChEMBL document CHEMBL1201862, “PubChem BioAssay data set” (2004).
Counter-ions that a name gives are not always drawn. Calls of active or inactive are those of the source.

Assays:
[1] = molecular target: Voltage-gated inwardly rectifying potassium channel KCNH2 (Homo sapiens, UniProt Q12809); conditions: Potency;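 further: confirmatory quantitative high-throughput screen measuring inhibition of hERG channel activity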
[2] = molecular target: Dual specificity tyrosine-phosphorylation-regulated kinase 1A (Rattus norvegicus, UniProt Q63470); type: biochemical, Homo sapiens
[3] = viability loss in THP-1 monocytes – THP-1 cells, cytotoxicity control for Vif-APOBEC3G degradation inhibitor project, dose response (AID 1117359); type: functional; conditions: THP-1
[4] = molecular target: Heat shock protein HSP 90-alpha (Homo sapiens, UniProt P07900); type: functional, organism-based
Beta-galactosidase = Beta-galactosidase (Escherichia coli, UniProt Q8VNN2); assay: PubChem AID 485352; type: functional
Chain of Beta-galactosidase (Q8VNN2 whole entry): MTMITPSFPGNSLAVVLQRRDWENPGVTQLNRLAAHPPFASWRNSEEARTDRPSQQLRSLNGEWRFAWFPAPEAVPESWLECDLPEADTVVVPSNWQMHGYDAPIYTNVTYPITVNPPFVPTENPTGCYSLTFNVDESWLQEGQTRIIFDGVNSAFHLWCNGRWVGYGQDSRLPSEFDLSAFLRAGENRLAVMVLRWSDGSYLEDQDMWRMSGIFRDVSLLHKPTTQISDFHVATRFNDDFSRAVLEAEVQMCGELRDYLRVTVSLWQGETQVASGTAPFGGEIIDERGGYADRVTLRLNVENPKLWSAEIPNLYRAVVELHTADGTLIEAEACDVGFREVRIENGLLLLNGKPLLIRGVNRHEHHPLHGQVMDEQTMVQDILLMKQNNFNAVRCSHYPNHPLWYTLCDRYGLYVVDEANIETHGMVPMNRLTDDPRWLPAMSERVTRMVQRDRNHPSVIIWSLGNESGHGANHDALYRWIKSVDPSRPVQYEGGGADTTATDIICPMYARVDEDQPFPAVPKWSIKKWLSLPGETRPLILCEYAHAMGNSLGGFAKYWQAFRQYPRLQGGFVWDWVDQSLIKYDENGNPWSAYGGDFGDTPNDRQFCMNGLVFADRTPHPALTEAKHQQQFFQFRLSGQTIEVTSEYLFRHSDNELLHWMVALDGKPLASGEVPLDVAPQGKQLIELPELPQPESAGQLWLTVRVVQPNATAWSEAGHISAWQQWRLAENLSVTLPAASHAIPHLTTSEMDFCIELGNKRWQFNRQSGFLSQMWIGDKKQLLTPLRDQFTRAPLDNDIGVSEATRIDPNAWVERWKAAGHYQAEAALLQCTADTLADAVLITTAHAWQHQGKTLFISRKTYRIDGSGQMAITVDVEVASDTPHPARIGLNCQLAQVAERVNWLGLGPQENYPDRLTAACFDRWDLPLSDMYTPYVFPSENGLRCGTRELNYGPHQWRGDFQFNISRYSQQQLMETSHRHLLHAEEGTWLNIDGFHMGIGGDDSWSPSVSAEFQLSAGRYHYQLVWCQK

[5] = molecular target: T1, Type-1 angiotensin II receptor (Homo sapiens, UniProt P30556); assay: antagonism of angiotensin II type 1 receptor – cell-based, uHTS hits, selectivity assay for APJ receptor antagonist project, dose response (AID 463214); type: functional;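 further: antagonist potency against angiotensin II stimulated AT1 response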
T1 sequence (P30556 whole entry): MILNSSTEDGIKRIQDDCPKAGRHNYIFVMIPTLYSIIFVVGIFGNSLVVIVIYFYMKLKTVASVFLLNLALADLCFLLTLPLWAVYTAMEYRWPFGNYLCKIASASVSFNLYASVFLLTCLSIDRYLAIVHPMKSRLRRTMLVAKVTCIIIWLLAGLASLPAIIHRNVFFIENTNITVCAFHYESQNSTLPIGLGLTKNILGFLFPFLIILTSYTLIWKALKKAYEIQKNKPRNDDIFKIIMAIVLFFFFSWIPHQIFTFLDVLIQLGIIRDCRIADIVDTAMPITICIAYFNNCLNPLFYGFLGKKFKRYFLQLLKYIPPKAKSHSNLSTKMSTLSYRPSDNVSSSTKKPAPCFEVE

[6] = molecular target: Glucose-6-phosphate 1-dehydrogenase (Homo sapiens, UniProt P11413); assay: inhibition of Homo sapiens G6PD, dose series – biochemical, fluorescence, selectivity assay for P. falciparum G6PD inhibitor project, dose response (AID 504792); type: functional
Chain of Glucose-6-phosphate 1-dehydrogenase (P11413 whole entry): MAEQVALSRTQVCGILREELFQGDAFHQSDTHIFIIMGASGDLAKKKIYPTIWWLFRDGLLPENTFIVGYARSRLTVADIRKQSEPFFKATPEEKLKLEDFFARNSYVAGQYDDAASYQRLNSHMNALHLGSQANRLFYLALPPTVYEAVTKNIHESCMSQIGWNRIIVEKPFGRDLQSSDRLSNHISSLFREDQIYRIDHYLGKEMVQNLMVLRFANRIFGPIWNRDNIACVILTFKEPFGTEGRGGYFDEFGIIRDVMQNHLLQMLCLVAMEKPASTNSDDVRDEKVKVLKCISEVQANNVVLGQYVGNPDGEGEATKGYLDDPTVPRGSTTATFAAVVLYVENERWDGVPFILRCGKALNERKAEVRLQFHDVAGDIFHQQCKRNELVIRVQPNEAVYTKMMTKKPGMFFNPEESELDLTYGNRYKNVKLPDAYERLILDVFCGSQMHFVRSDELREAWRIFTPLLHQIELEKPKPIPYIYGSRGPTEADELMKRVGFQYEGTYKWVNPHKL

Large T antigen = Large T antigen (Simian virus 40, UniProt P03070); type: functional, Betapolyomavirus macacae;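 further: Confirmatory-stage PubChem screen for compounds that inhibit SV40 T antigen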
Chain of Large T antigen (P03070 whole entry): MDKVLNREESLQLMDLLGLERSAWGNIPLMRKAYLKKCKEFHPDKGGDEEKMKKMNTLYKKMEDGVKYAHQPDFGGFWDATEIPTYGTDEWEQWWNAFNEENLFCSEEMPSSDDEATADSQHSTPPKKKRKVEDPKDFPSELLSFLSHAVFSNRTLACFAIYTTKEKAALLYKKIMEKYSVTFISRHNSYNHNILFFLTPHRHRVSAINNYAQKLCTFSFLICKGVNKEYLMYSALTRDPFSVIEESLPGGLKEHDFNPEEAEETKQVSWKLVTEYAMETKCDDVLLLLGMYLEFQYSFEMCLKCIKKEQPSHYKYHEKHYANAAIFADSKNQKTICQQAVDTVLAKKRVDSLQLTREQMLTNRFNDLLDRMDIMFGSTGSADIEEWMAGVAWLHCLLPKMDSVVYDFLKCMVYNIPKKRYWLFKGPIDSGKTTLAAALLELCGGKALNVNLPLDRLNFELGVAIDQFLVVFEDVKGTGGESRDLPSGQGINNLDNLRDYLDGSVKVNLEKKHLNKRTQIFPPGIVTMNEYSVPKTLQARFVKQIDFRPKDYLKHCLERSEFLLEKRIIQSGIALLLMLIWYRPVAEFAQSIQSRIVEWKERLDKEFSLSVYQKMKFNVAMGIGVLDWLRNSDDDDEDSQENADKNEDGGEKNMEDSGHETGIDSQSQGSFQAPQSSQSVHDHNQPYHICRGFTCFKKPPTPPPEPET

[7] = blockade of melanocortin 4 receptor signaling – cell-based, plate reader, cherry pick, counter-screen for LGR2 antagonist project, dose response (AID 743444); type: functional;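 further: transfected HEK 293 cells stimulated with alpha-MSH peptide; potency of inhibitors of the alpha-MSH evoked signal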
[8] = blockers of bursicon-stimulated LGR2 cAMP reporter – cell-based, HEK293, CRE-luciferase reporter, cherry pick, set 2, dose response (AID 743343); type: functional;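 further: transfected cells were stimulated with diluted bursicon conditioned medium after compound addition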
HEK293 [9] = assay: EBV LMP1 TES2 canonical NF-kB signalling blockers – cell-based, HEK293, luciferase, cherry-pick, dose response (AID 588343); type: functional; conditions: Homo sapiens
[10] = molecular target: T2, Microphthalmia-associated transcription factor (Homo sapiens, UniProt O75030); assay: reducers of TRPM1 reporter luminescence, concentration series – cell-based, SK-MEL-5, cherry-picked, set 3, MITF inhibitor project, dose response (AID 493073); type: functional;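 further: SK-MEL-5 melanoma cells with luciferase driven by the MITF target TRPM1 promoter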
T2 sequence (O75030 whole entry): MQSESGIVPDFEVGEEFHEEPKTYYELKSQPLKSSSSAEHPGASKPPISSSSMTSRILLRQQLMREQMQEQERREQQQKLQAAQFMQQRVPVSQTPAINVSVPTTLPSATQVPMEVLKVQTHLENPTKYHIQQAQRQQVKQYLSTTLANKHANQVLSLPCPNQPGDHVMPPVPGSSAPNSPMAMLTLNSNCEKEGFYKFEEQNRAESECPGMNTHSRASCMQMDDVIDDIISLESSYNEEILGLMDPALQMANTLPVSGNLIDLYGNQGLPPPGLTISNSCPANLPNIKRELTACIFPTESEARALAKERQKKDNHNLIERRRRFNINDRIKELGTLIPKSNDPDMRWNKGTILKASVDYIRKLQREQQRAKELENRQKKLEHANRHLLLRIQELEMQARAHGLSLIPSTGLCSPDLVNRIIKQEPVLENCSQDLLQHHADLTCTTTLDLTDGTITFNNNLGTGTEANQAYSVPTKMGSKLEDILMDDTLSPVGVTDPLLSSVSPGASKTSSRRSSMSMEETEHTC

[11] = molecular target: T3, Nucleotide-binding oligomerization domain-containing protein 1 (Homo sapiens, UniProt Q9Y239); assay: blockers of NOD1 pathway activity – revised, SAR follow-up (AID 2333); type: functional
T3 sequence (Q9Y239 whole entry): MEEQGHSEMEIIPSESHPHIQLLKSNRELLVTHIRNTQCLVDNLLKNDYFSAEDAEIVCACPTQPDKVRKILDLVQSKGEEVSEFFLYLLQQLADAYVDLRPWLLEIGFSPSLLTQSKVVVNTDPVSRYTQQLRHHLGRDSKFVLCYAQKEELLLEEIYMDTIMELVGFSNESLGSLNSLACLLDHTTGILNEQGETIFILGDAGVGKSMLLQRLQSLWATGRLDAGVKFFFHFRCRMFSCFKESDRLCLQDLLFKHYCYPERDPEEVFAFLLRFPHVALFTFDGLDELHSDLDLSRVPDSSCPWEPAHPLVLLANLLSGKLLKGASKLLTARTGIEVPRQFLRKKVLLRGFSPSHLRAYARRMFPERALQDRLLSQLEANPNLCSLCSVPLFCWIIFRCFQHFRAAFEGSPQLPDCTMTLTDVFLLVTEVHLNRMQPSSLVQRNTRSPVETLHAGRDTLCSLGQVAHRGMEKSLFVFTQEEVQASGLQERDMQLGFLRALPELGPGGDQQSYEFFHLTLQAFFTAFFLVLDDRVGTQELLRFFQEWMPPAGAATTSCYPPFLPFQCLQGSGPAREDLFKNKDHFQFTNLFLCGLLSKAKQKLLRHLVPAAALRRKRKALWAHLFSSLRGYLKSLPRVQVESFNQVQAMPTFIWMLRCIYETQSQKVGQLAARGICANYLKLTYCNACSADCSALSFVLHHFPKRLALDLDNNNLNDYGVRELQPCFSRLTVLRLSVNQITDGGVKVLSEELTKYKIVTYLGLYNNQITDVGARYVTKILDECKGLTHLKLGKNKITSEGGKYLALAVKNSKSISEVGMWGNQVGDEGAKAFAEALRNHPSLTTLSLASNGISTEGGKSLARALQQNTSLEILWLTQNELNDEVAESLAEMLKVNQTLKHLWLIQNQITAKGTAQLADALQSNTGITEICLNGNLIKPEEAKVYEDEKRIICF

Tumor necrosis factor = Tumor necrosis factor (Homo sapiens, UniProt P01375); assay: analog potency on TNFa NF-kB signaling – cell-based, revised, SAR follow-up (AID 2337); type: functional
Chain of Tumor necrosis factor (P01375 whole entry): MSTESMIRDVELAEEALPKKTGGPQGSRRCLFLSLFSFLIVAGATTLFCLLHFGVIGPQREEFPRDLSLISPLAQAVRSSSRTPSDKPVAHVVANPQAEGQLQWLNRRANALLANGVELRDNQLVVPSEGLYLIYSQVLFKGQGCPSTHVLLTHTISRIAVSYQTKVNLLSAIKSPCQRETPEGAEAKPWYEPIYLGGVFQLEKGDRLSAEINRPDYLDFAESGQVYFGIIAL

[12] = molecular target: T4, Heat shock factor protein 1 (Mus musculus, UniProt P38532); assay: decrease of HSF1-responsive luciferase luminescence – cell-based, NIH3T3, dose retest, confirmation (AID 2382); type: functional;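 further: NIH3T3 fibroblasts with HSF1-driven luciferase reporter stressed by proteasome inhibitor MG132; luminescence from HSF1-driven luciferase expression after 8 hours of MG132 stress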
T4 sequence (P38532 whole entry): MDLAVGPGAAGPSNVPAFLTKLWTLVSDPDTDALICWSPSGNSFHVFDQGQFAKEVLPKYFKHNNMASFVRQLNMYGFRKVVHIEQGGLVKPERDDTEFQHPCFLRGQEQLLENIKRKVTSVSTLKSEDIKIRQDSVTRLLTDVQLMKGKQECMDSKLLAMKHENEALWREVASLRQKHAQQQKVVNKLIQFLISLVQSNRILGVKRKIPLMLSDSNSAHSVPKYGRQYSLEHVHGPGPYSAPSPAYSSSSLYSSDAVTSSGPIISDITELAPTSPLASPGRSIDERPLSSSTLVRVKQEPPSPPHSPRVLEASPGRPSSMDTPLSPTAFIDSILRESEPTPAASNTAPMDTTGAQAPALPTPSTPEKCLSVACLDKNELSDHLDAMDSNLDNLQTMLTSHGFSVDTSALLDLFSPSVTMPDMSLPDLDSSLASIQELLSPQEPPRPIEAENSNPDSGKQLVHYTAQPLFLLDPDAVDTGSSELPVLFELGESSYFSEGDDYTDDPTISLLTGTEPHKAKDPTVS

HEK293 [13] = assay: cells; conditions: Homo sapiens
Melanocortin receptor 4 = Melanocortin receptor 4 (Homo sapiens, UniProt P32245); type: functional, cell-based;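 further: Cell-based assay with luminescence read-out, confirmatory dose-response testing for agonist activity of biased ligands at MC4R; human U2OS cells with tagged receptor and beta-arrestin; potency of agonists that increase receptor coupling to beta-arrestin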
Chain of Melanocortin receptor 4 (P32245 whole entry): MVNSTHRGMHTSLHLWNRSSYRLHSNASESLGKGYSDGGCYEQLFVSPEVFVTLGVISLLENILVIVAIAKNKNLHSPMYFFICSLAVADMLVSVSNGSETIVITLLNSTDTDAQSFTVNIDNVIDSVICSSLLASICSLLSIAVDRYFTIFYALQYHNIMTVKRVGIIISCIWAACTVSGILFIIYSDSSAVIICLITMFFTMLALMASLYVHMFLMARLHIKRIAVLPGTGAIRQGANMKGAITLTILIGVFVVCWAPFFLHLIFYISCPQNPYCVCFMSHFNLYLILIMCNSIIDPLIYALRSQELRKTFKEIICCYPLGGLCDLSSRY

[14] = test system: Streptococcus sp. 'group A'; assay: Streptococcus pyogenes SK(-)GAS viability under kanamycin – luminescence, BacTiterGlo, confirmation, counter-screen for streptokinase expression inhibitor project, dose response (AID 1900); type: functional, organism-based
HEK293 [15] = assay: cells; type: functional, cell-based; conditions: Homo sapiens
HEK293 [16] = assay: inhibition of NOD1-driven NF-kB reporter – cell-based, luminescence, uHTS, primary screen (AID 1578); type: functional; conditions: Homo sapiens
HEK293 [17] = assay: cells; type: functional, cell-based; conditions: Homo sapiens; remark: listed apart in the source
HEK293 [18] = assay: NOD2 signaling inhibitors in MDP-stimulated cells, cell-based, uHTS, luminescence (AID 2001); type: functional; conditions: Homo sapiens
Streptococcus = assay: GAS UMAA2166 growth inhibition – luminescence, BacTiterGlo, counter-screen for streptokinase expression inhibitor project, dose response (AID 1915); type: functional, organism-based;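 further: potency for reduction of bacterial viability or growth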
[19] = molecular target: Adenosylmethionine-8-amino-7-oxononanoate aminotransferase (Mycobacterium tuberculosis, UniProt P9WQ81); assay: Mycobacterium tuberculosis BioA enzyme inhibitor Measured in Biochemical System Using Plate Reader - 2163-02_Inhibitor_Dose_CherryPick_Activity.; type: functional, Mycobacterium tuberculosis UT205
Chain of Adenosylmethionine-8-amino-7-oxononanoate aminotransferase (P9WQ81 whole entry): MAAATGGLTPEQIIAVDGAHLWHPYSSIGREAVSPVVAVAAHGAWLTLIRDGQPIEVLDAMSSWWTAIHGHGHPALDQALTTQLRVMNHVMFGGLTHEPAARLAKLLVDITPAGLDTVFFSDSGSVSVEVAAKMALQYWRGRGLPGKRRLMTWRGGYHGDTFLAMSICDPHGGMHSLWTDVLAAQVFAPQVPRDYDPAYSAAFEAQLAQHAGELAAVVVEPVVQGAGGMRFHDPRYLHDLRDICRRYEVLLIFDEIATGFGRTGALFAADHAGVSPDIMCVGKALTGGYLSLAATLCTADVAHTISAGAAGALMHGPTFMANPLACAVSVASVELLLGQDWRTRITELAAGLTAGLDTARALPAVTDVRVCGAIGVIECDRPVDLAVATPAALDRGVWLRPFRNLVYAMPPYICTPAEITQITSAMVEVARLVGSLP

H9c2 = assay: cells; type: functional, cell-based; conditions: Rattus norvegicus, H9c2, Myocardium
[20] = molecular target: T5, Low molecular weight phosphotyrosine protein phosphatase (Homo sapiens, UniProt P24666); type: functional; conditions: read-out: IC50_Mean;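 further: Dose-response confirmation assay measuring inhibition of LMPTP enzyme activity by fluorescence intensity read-out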
T5 sequence (P24666 whole entry): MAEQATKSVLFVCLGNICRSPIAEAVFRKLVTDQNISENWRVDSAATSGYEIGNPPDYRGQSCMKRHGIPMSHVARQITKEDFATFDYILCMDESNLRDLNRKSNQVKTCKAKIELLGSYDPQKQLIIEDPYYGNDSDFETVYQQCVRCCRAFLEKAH

[21] = molecular target: T6, DNA repair protein RAD52 homolog (Homo sapiens, UniProt P43351); type: functional, biochemical
T6 sequence (P43351 whole entry): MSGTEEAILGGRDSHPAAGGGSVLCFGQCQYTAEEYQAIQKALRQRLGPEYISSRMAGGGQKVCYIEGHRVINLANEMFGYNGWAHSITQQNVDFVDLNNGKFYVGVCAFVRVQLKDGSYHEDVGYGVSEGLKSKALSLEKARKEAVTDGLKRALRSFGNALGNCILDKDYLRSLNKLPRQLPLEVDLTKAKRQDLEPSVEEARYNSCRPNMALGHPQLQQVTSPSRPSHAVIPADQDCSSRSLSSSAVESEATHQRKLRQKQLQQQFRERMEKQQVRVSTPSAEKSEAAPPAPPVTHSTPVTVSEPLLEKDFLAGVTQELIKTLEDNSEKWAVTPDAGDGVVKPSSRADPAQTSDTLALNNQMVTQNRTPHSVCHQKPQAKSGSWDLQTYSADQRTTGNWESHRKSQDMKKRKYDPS

Chain of Voltage-gated inwardly rectifying potassium channel KCNH2 (Q12809 whole entry): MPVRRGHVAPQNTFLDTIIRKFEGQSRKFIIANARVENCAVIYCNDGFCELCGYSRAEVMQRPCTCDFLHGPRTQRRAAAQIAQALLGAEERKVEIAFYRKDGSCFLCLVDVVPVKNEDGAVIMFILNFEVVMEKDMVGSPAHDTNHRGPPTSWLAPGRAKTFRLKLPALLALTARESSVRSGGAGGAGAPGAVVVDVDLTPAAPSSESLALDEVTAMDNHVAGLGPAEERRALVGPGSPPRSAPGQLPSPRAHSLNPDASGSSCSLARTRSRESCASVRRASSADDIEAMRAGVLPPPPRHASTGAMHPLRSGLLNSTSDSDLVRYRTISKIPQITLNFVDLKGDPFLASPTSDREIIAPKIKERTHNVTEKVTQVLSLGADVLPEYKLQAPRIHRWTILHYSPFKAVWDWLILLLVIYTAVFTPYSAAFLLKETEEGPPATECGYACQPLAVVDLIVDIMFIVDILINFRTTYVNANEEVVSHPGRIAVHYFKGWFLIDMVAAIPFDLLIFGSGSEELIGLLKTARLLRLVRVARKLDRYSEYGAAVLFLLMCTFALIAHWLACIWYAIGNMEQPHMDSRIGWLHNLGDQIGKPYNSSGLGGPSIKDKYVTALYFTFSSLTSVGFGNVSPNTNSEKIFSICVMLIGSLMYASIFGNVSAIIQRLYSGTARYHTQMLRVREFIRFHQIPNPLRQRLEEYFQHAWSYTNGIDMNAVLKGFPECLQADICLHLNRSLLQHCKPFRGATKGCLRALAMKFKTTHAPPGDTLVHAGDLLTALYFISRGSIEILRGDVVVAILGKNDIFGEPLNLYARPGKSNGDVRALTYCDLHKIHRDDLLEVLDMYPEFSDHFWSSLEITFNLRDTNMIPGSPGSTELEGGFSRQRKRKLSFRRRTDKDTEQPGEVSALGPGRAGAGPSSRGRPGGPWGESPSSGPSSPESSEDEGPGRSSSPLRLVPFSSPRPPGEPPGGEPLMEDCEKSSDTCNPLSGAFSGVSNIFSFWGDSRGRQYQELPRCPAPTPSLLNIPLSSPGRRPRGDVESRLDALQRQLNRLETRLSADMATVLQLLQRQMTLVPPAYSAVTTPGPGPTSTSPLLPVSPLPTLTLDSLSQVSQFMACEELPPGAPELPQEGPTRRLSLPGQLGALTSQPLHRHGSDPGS

## NCC(O)C1CCCCCCC1 (stereo not given)
[1]
  AC50: 15.8 µM (inconclusive)

## NC1=NC(=O)/C(=C\c2ccc(O)c([N+](=O)[O-])c2)S1
[2]
  AC50: 1.23 µM (active)

## Cc1ccc(C(C[N+](=O)[O-])Sc2ccc(N)cc2)cc1 (stereo not given)
[3]
  CC50: > 40 µM (active)
[4]
  AC50: 4.99 µM (active)
Beta-galactosidase
  EC50: 31.3 µM (active)
[5]
  IC50: 16.9 µM (active)

## COc1ccc(NC2CCCN(Cc3cccc4cnccc34)C2)cc1OC (stereo not given)
[6]
  IC50: > 80 µM (inactive)
Large T antigen
  IC50: 42.5 µM (active)

## [O-]/[N+](=C\c1ccccc1)c1ccc(Br)cc1
[6]
  IC50: 22.1 µM (inactive)

## O=C(Nc1cccc(C(=O)O)c1)Nc1ccccc1Cl
[7]
  AC50: 4.29 µM (active)
[8]
  AC50: 2.75 µM (active)
HEK293 [9]
  AC50: 4.97 µM (active)

## COCCn1c(C)cc(C(=O)COC(=O)c2ccccc2Br)c1C
[10]
  AC50: 1.14 µM (active)
[11]
  IC50: 11.3 µM (active)
Tumor necrosis factor
  IC50: < 0.0391 µM (active)
[12]
  EC50: < 0.16 µM (active)
HEK293 [13]
  IC50: > 20 µM (inactive)

## COc1ccc(COc2ccsc2C(=O)Nc2ccc(Cl)c(Cl)c2)cc1
Melanocortin receptor 4
  EC50: > 89.2 µM (inactive)

## COC(=O)c1oc2ccc(OC)cc2c1N
[2]
  AC50: 1.56 µM (active)

## N#Cc1c(O)nc(SCc2cccc(C(F)(F)F)c2)nc1-c1ccccc1
[14]
  EC50: 2.63 µM (active)
HEK293 [15]
  IC50: 19 µM (active)
HEK293 [16]
  EC50: 6.55 µM (active)
HEK293 [17]
  IC50: > 20 µM (inactive)
HEK293 [13]
  IC50: > 20 µM (inactive)
HEK293 [18]
  IC50: 13.2 µM (inactive)
Streptococcus
  EC50: 10.3 µM (active)

## CCCn1cc(S(=O)(=O)CC(=O)Nc2ccc(OC)cc2OC)c2ccccc21
[6]
  IC50: 59.9 µM (inactive)

## NC(=S)NN=Cc1nccc2c(N)cccc12
HEK293 [9]
  AC50: 1.55 µM (active)

## Cc1cccc(-n2c(SCC(=O)N(C)C3CCS(=O)(=O)C3)nc3ccccc3c2=O)c1C (stereo not given)
[19]
  AC50: 3.13 µM (active)

## COc1cccc(-c2cnc3c(NC(C)=O)cc(-c4cc(OC)c(OC)c(OC)c4)cn23)c1
Melanocortin receptor 4
  EC50: > 89.2 µM (inactive)
H9c2
  IC50: > 79 µM (inactive)

## CCOc1ccc(C(=O)N/N=C/c2cc([N+](=O)[O-])cs2)cc1
[20]
  IC50: 14.4 µM (active)

## O=C(O)C1=CCCN(CCON=C(c2ccccc2)c2ccccc2)C1
[1]
  AC50: 35.5 µM (inconclusive)

## CN(C)c1nc(N)c(C(=O)NC(=N)N)nc1Cl [5-(N,N-DIMETHYL)AMILORIDE HYDROCHLORIDE]
[1]
  AC50: 17.8 µM (inconclusive)
[21]
  AC50: 18 µM (active)
